US12247087B2, “Biological active peptide for improving enzyme activity of ACE2 and application thereof” (priority 2023, dated 2025)
Peptide text beside a SMILES is read from it.

Key:
ACE2 = target: T1, ACE2 (Mus musculus, UniProt Q8R0I0); experiment: ACE2 active fluorescence detection kit, influence of SCOL polypeptide on ACE2 enzyme activity in mice liver tissue supernatant; format: biochemical
T1 construct: taking 50 mg mice liver tissue, adding 500 μL lysis solution to perform the homogenization treatment; from tissue; host or cells: mouse liver tissue homogenate supernatant
Procedure: Detection was performed by using Biyuntian ACE2 active fluorescence detection kit; the principle was as follows. […] When the substrate was fully cut by the ACE2, two ends of the polypeptide were separated, two fluorophores were separated, which led to detection of the fluorescence, such that the enzyme activity of the ACE2 protein enzyme can be sensitively detected by the fluorescence detection.
(1) preparation of samples: taking 50 mg mice liver tissue, adding 500 μL lysis solution to perform the homogenization treatment, centrifuging at 4° C. under 12000×g for 5 min, taking the supernatant for next step; […]
(3) adding 2 μL substrates in the 96 hole plate, individually adding 2.2 μL with concentration of 0.004, 0.008, 0.012, 0.016, 0.02 μg/μL of the total concentration in the PCR tubes, adding 8.8 μL supernatant sample in step (1), adding 96.8 μL buffer; and adding 11 μL lysis solution and 96.8 μL buffer in a blank control, mixing, sucking above 98 μL solution by a volley gun and adding to the 96 hole plate with substrates. Performing fluorescence detection by a fluorescence microplate reader after mixing, in particular, the setting temperature was at 37° C., the excitation wavelength was 325 nm, and the emission wavelength was 393 nm. […]

[1] = target: T2, novel coronavirus S protein-ACE2 protein binding (Homo sapiens, UniProt Q9BYF1); experiment: biochemical
T2 construct: purchased RayBio
T2 sequence (Q9BYF1 18-740): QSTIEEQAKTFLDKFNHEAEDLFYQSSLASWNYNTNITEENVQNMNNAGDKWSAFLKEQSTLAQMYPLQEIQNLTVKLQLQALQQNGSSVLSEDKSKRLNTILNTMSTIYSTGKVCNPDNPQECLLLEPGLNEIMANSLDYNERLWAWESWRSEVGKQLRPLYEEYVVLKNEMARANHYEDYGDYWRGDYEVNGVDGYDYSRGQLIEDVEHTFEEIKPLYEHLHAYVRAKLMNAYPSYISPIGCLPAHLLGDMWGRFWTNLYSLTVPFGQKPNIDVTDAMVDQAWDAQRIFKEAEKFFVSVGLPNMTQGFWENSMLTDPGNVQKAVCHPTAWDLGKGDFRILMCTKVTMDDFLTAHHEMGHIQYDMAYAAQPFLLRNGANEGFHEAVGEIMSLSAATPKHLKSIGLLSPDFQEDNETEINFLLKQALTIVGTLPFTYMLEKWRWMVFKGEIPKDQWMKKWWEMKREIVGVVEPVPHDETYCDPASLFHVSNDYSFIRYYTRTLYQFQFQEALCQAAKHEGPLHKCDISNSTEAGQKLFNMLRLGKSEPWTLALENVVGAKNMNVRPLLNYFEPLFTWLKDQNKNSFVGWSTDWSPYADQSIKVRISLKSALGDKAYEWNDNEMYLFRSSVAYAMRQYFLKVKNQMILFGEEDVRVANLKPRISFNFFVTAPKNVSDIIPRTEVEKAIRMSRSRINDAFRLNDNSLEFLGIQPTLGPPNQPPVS

T1 sequence (Q8R0I0 18-805): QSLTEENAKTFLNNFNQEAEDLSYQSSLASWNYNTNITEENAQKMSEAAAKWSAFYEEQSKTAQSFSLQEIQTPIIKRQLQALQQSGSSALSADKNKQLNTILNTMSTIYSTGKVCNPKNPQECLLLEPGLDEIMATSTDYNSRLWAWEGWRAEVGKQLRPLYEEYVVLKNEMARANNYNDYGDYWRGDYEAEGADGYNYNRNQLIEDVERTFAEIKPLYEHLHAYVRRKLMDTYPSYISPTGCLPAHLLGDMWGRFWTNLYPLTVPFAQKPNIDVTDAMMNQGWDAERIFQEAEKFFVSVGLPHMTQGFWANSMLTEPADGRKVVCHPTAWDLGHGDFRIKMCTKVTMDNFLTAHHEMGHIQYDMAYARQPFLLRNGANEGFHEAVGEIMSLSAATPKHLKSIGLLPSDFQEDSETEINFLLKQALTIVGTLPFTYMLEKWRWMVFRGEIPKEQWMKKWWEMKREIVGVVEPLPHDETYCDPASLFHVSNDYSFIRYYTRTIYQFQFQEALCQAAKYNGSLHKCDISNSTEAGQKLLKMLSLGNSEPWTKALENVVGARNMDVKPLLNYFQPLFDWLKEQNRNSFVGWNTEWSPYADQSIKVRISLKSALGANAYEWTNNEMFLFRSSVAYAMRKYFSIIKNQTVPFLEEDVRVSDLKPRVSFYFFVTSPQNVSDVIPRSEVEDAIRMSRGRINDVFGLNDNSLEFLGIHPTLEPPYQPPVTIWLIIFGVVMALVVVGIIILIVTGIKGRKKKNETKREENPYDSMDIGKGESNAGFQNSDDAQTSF

CC[C@H](C)[C@H](N)C(=O)N1CCC[C@H]1C(=O)N[C@@H](CO)C(=O)N[C@H](C(=O)N[C@H](C(=O)N1CCC[C@H]1C(=O)N[C@@H](Cc1ccccc1)C(=O)N1CCC[C@H]1C(=O)N[C@@H](CO)C(=O)N[C@H](C(=O)N[C@H](C(=O)N[C@H](C(=O)N[C@@H](C)C(=O)N[C@H](C(=O)N[C@H](C(=O)N[C@H](C(=O)N[C@@H](CCSC)C(=O)O)[C@@H](C)O)[C@@H](C)O)[C@@H](C)O)C(C)C)[C@@H](C)O)[C@@H](C)O)[C@@H](C)O)[C@@H](C)O [SCOL peptide, Ile-Pro-Ser-Thr-Thr-Pro-Phe-Pro-Ser-Thr-Thr-Val-Ala-Thr-Thr-Thr-Met] (H-IPSTTPFPSTTVATTTM-OH; N-terminus and C-terminus assumed)
activity of the ACE2 in the samples with the increase of the SCOL polypeptide concentration (ACE2; 0.004-0.02 μg/μL): increasing trend
highest ACE2 activity relative to the initial activity (ACE2; SCOL polypeptide concentration 0.02 μg/μL, 37° C.): 3.76 times
effect on S protein-ACE2 binding compared with the control group [1]: inhibiting effect
inhibition at 800 µg/mL ([1]; read-out: highest inhibition rate of binding between S protein and ACE2): 65%
